The series relates to CCRIS mutagenicity, Ames/micronucleus/aberration tests. Nature of the series: CCRIS mutagenicity studies.
Where [1] appears, read: Test System: AMES SALMONELLA TYPHIMURIUM, Strain/Indicator: TA98, Metabolic Activation: NONE, Method: STANDARD PLATE.
Setting [2] is: Test System: AMES SALMONELLA TYPHIMURIUM, Strain/Indicator: TA98, Metabolic Activation: RAT, LIVER, S-9, AROCLOR 1254, Method: STANDARD PLATE.
The mark [3] stands for this setting: Test System: MOUSE LYMPHOMA, Strain/Indicator: L5178Y (TK+/TK-), Metabolic Activation: NONE, Method: SUSPENSION/PLATE.
[4] abbreviates: Test System: MOUSE LYMPHOMA, Strain/Indicator: L5178Y (TK+/TK-), Metabolic Activation: RAT, LIVER, S-9, AROCLOR 1254, Method: SUSPENSION/PLATE.

Active and inactive are the calls of the source. No rule for the calls is given here.

For the compound `Cc1cc(C)c(S(=O)(=O)O)cc1N=Nc1cc(S(=O)(=O)O)c2ccccc2c1O`, the mutagenic call is “inactive; negative” (Test System: AMES SALMONELLA TYPHIMURIUM, Strain/Indicator: TA98, Metabolic Activation: HAMSTER, LIVER, S-9, AROCLOR 1254, Method: STANDARD PLATE); “inactive; negative” under setting [1]; “inactive; negative” (Test System: AMES SALMONELLA TYPHIMURIUM, Strain/Indicator: TA98, Metabolic Activation: RAT LIVER S-9, AROCLOR 1254, Method: STANDARD PLATE); “inactive; negative” under setting [2]; “inactive; negative” (Test System: AMES SALMONELLA TYPHIMURIUM, Strain/Indicator: TA100, Metabolic Activation: HAMSTER, LIVER, S-9, AROCLOR 1254, Method: STANDARD PLATE); “inactive; negative” (Test System: AMES SALMONELLA TYPHIMURIUM, Strain/Indicator: TA100, Metabolic Activation: NONE, Method: STANDARD PLATE). Also, the mutagenic call is “inactive; negative” (Test System: AMES SALMONELLA TYPHIMURIUM, Strain/Indicator: TA100, Metabolic Activation: RAT LIVER S-9, AROCLOR 1254, Method: STANDARD PLATE); “inactive; negative” (Test System: AMES SALMONELLA TYPHIMURIUM, Strain/Indicator: TA100, Metabolic Activation: RAT, LIVER, S-9, AROCLOR 1254, Method: STANDARD PLATE); “inactive; negative” (Test System: AMES SALMONELLA TYPHIMURIUM, Strain/Indicator: TA1535, Metabolic Activation: HAMSTER, LIVER, S-9, AROCLOR 1254, Method: STANDARD PLATE); “inactive; negative” (Test System: AMES SALMONELLA TYPHIMURIUM, Strain/Indicator: TA1535, Metabolic Activation: NONE, Method: STANDARD PLATE); “inactive; negative” (Test System: AMES SALMONELLA TYPHIMURIUM, Strain/Indicator: TA1535, Metabolic Activation: RAT, LIVER, S-9, AROCLOR 1254, Method: STANDARD PLATE); “inactive; negative” (Test System: AMES SALMONELLA TYPHIMURIUM, Strain/Indicator: TA1537, Metabolic Activation: HAMSTER, LIVER, S-9, AROCLOR 1254, Method: STANDARD PLATE). Moreover, the mutagenic call (Test System: AMES SALMONELLA TYPHIMURIUM, Strain/Indicator: TA1537, Metabolic Activation: NONE, Method: STANDARD PLATE) was “inactive; negative”; the mutagenic call (Test System: AMES SALMONELLA TYPHIMURIUM, Strain/Indicator: TA1537, Metabolic Activation: RAT, LIVER, S-9, AROCLOR 1254, Method: STANDARD PLATE) was “inactive; negative”; the mutagenic call (Test System: AMES SALMONELLA TYPHIMURIUM, Strain/Indicator: TA1538, Metabolic Activation: HAMSTER, LIVER, S-9, AROCLOR 1254 (2.5-20%), Method: PREINCUBATION) was “inactive; negative”; the mutagenic call (Test System: AMES SALMONELLA TYPHIMURIUM, Strain/Indicator: TA1538, Metabolic Activation: HAMSTER, LIVER, S-9, AROCLOR 1254, Method: STANDARD PLATE) was “inactive; negative”; the mutagenic call (Test System: AMES SALMONELLA TYPHIMURIUM, Strain/Indicator: TA1538, Metabolic Activation: NONE, Method: STANDARD PLATE) was “inactive; negative”; the mutagenic call (Test System: AMES SALMONELLA TYPHIMURIUM, Strain/Indicator: TA1538, Metabolic Activation: RAT, LIVER, S-9, AROCLOR 1254, Method: STANDARD PLATE) is “inactive; negative”. The mutagenic call runs as follows: under setting [3], “inactive; negative. reevaluation of results: negative”; under setting [4], “inactive; negative. reevaluation of results: negative”.
Turning to `CC(=O)Nc1ccc2c3c(cccc13)-c1ccc(O)cc1-2`, the mutagenic call is, setting by setting: under setting [1], “active; positive”; under setting [2], “active; positive”.
In the case of `CC1=CC(O)=NS(=O)(=O)O1`, the mutagenic call (End Point: In vivo micronucleus, Test System: Peripheral blood normochromatic erythrocytes, Species: Mouse, Strain/Sex: FVB.N/TgN (v-Ha-ras) Tg.AC hemizygous/Female, Route: Oral) is “inactive; negative”; the mutagenic call (End Point: In vivo micronucleus, Test System: Peripheral blood normochromatic erythrocytes, Species: Mouse, Strain/Sex: FVB.N/TgN (v-Ha-ras) Tg.AC hemizygous/Male, Route: Oral) was “inactive; negative”; the mutagenic call (End Point: In vivo micronucleus, Test System: Peripheral blood normochromatic erythrocytes, Species: Mouse, Strain/Sex: p53 Haploinsufficient/ Female, Route: Oral) is “inactive; negative”; the mutagenic call (End Point: In vivo micronucleus, Test System: Peripheral blood normochromatic erythrocytes, Species: Mouse, Strain/Sex: p53 Haploinsufficient/Male, Route: Oral) was “active; positive”; the mutagenic call under setting [3] was “inactive; negative. reevaluation of results: negative”; the mutagenic call under setting [4] was “inactive; negative. reevaluation of results: negative”.

(Values after PubChem BioAssay AID1259407 (Chemical Carcinogenesis Research Information System (CCRIS), 2018).)
